# Reference: patent publication US20050096370A1, “Method for inhibiting tumor angiogenesis and tumor growth” (Bizbiotech Co., Ltd., priority 2003, published 2005)
# Test system: SiHa cervical carcinoma
# Test: SiHa cervical carcinoma xenograft tumor growth in nude mice
# Format: in vivo
# Settings: YC-1 30 μg/g daily i.p. 2 weeks, P<0.01
# Method: Male nude mice were injected subcutaneously in the flank with 5×10^6 viable Hep3B hepatoma (A), NCI-H87 gastric carcinoma (B), SiHa cervical carcinoma (C), SK-N-MC neuroblastoma (E), or Caki-I renal carcinoma (F) cells. […] Tumor size was measured over time. […] Differences between tumor sizes in the vehicle- and YC-1-treated groups for mice with Hep3B tumors were compared using ANOVA and Duncan's multiple range tests. * denotes P<0.001 relative to the control. Differences between tumor sizes in the vehicle and YC-1-treated groups for mice with other tumors (B-E) were compared using a Mann-Whitney U test. Each number beneath the error bar represents the P value of the difference relative to the control.
# Male nude (BALB/cAnNC˜-nu/nu) mice were purchased from Charles River Japan Inc. (Shin-Yokohama, JAPAN). The animals were housed in a specific pathogen-free room under controlled temperature and humidity. All animal procedures were performed according to the established procedures of the Seoul National University Laboratory Animal Maintenance Manual. Eighty mice aged 7-8 weeks were injected with tumor cells for the xenograft experiments. […]
# Tumors were measured every 2 or 3 days with calipers in two dimensions and the tumor volumes were calculated using the formula: Volume=axb2/2, where a is the width at the widest point of the tumor and h is the width perpendicular to a. […]
structure (smiles),measurement,value
"OCc1ccc(-c2nn(Cc3ccccc3)c3ccccc23)o1 [YC-1, 3-(5′-hydroxymethyl-2′-furyl)-1-benzylindazole]",tumor size versus vehicle,statistically significantly smaller
